# Source: publication PMC10799935, “Discovery of a peripheral 5HT2A antagonist as a clinical candidate for metabolic dysfunction-associated steatohepatitis” (Nature Communications, 2024)
# Where “and” joins values, the source holds several entries; their conditions need not be identical. Equal entries are not always repeated.
# How the values were obtained:
# 5HT1A (h) = molecular target: T1, 5HT1A (h) (Homo sapiens, UniProt P08908); experiment: 5HT subtype antagonism assay (Eurofins Cerep): 5HT1A; format: cell-based; conditions: concentration not given
# T1 construct: host or cells: BA/F3 cells
# [1] = Hepatocyte stability test, dog; format: in vitro ADME; conditions: male, beagle, cryopreserved hepatocytes, pH 7.4, read-out: Hepatocyte stability (% remaining after 3 h)
# Protocol: Hepatocyte incubations for the test compound (10 μM final concentration, n = 2 per each time point) were carried out in mouse, rat, dog, monkey and human cryopreserved hepatocytes, resuspended at a density of 0.5 million cells/ml of modified Krebs-Henseleit buffer (KHB). The information regarding the hepatocytes used in the experiment is as follows: liverPool® 10-donor mixed gender human (BioIVT, Cat.No. X008001, lot EAV), male cynomolgus monkey (BioIVT, Cat.No. M00305, lot COJ), male Beagle dog (BioIVT, Cat.No. M00205, lot USY), male Sprague Dawley rat (BioIVT, Cat.No. M00005, lot TQE) and male CD1 mouse (BioIVT, Cat.No.005052, lot LFF). In addition, the compound was also incubated with blank KHB. The final concentration of solvent (DMSO) was 0.1% of the final volume. The incubations were performed for 3 hours at 37°C and pH 7.4. Reactions were terminated at 0 and 180 minutes by the addition of 3 volumes of stop solution (acetonitrile/methanol (2:1, v/v) containing internal standard–diclofenac at 100 ng/ml). Samples (compound spiked buffer and compound spiked hepatocytes, as well as blank samples, i.e. hepatocytes with the same DMSO%) were then centrifuged and aliquots were transferred to 96-deep micronic tubes and frozen at -80 °C until LC-MS/MS analysis. […]
# [2] = In vivo PK with diverse doses (5, 10, 20 mpk) for PK and PD co-relation
# Protocol: In this paper, the authors based on their previous studies on 5-HT2A LKO mice and 5HT2A antagonists, try to synthesize a serial of new derivatives based on the compound 2 (Clarinex) to develop oral drug candidates of […]
# Then the authors tested the pharmacokinetics of compound 11c both in rats and dogs by iv and gavage administration. Besides, the tissue distribution of compound 11c was also determined by […]
# NASH and fibrosis. The following questions may need to be answered by the authors.
# Comment 1: In general, after gavage administration for 8 weeks (page 178-179) or 12 weeks (page 274-275), the compound 11c mainly distributed in digestive track especially in intestines with comparatively lower plasma drug concentration as well as in the other organs.
# Response: We appreciate the Reviewer’s comment. For most oral drugs, the high level of total radioactivity is often observed in gastrointestinal tract in QWBA (Quantitative Whole Body Autoradiography). In the study of QWBA for compound 11c, tissue distribution was evaluated in multiple time points. Total radioactivities in stomach and small intestine were high at early time points and decreased at late time points. […]
# in vitro = conditions: human
# 5HT2A = 5HT2A (Homo sapiens, UniProt P28223); experiment: Human 5HT2A inhibition assay (FLIPR calcium 6, 5HT stimulus, stably transfected HEK293 cells); format: cell-based; parameters: expressed in transfected cells; host or cells: HEK293; conditions: HEK293, 1 μM; read-out: % Inhibition at 1 μM (SD)
# Protocol: The derivatives were evaluated at a concentration of 1 μM for their antagonist activity on the 5HT2A receptor (Tables 1–3)[33],[34]. […] The cells were stained with 100 μL of cytosolic calcium dye using the FLIPR calcium 6 assay solution (Molecular devices, #R8190) supplemented with 2.5 mM probenecid (Sigma; P8761) and incubated for 1 h at 37 °C. After 1 h, the designated amount of the compound was treated in each well and incubated for another 1 h at 37 °C. […] Experimental conditions for the 5HT subtypes can be found in the Supporting Information (Supplementary Table 1).
# Sequence of 5HT2A (P28223 whole entry): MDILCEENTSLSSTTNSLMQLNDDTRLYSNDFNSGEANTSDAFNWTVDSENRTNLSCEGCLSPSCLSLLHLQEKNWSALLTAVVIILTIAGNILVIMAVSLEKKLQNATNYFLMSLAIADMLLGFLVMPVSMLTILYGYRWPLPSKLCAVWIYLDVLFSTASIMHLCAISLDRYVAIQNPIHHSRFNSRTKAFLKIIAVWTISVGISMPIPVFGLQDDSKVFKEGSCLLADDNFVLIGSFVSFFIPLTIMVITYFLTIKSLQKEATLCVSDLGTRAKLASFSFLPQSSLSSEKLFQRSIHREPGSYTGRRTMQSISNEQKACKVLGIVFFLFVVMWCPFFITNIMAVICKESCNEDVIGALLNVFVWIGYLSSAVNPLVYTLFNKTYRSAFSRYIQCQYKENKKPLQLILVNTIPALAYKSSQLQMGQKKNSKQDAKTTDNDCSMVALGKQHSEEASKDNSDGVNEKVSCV
# T1 sequence (P08908 whole entry): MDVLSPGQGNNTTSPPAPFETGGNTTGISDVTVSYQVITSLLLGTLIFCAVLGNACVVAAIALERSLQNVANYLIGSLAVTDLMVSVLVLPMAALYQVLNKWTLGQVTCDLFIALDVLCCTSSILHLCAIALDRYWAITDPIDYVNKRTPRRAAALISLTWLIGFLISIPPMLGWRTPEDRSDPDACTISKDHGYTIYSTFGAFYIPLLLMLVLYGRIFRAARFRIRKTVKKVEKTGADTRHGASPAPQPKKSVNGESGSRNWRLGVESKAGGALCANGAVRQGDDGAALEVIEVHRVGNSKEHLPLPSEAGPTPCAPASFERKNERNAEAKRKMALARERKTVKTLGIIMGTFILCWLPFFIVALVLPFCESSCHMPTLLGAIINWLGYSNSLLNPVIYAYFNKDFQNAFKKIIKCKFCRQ
compound,measurement,setting,value
Cc1nc2n(c(=O)c1CCN1CCC(=C3c4ccc(Cl)cc4CCc4cccnc43)CC1)CCCC2O (centres unmarked) [Compound 11c],Selectivity 1 A: % inhibition,5HT1A (h),9%
same,"remaining at 3 h, 10 μM",[1],88.5%
same,concentration present up to 8 hrs,[2],more than 20 nM and > 10 ng/mL
same,IC50,in vitro,> 100 µM
same,inhibition at 1 µM,5HT2A,92.56 ± 0.77%
